Values of other authors in paper PMC5742115, “Pharmacophore Modeling and in Silico/in Vitro Screening for Human Cytochrome P450 11B1 and Cytochrome P450 11B2 Inhibitors” (Frontiers in Chemistry, 2017).

Test system: CYP11B1
Conditions: reported activity, supplementary Table 1; ref Blass, 2013a; read-out: CYP11B1 IC50; cited from earlier work
In the case of Cc1nnc2n1-c1ccc(-c3cncc4ccccc34)cc1CC2 [CHEMBL2331706], the IC50 is given as 407 nM.

Same assay, conditions: reported activity, supplementary Table 1; ref Emmerich et al., 2013; read-out: CYP11B1 IC50; cited from earlier work
In the case of CC(c1ccc(-c2cccc3ccccc23)nc1)n1ccnc1 (stereo not shown) [CHEMBL2417627], the IC50 is listed as 60 nM. For c1ccc(-c2ccc(C(c3ccco3)n3ccnc3)cn2)cc1 (stereo not shown) [CHEMBL2417623], the IC50 is listed as 69 nM. For COc1cncc(Cc2ccc(-c3ccccc3)nc2)c1 [CHEMBL2417614], the IC50 is listed as 5 nM. For c1ccc(-c2ccc(Cc3cncc4ccccc34)cn2)cc1 [CHEMBL2417635], the IC50 is listed as 6 nM. For CCC(c1ccc(-c2ccccc2)nc1)n1ccnc1 (stereo not shown) [CHEMBL2417620], the IC50 is listed as 28 nM.

Same assay, conditions: reported activity, supplementary Table 1; ref Gobbi et al., 2013; read-out: CYP11B1 IC50; cited from earlier work
For O=c1c2ccccc2oc2c(Br)ccc(Cn3ccnc3)c12 [CHEMBL78322], the IC50 is listed as 6.7 nM. For O=c1c2ccccc2oc2c(OCC3CC3)ccc(Cn3ccnc3)c12 [CHEMBL2333334], the IC50 is listed as 5.5 nM. In the case of CC(C)Oc1ccc(Cn2ccnc2)c2c(=O)c3ccccc3oc12 [CHEMBL2333331], the IC50 is given as 92.5 nM. For O=c1c2ccccc2oc2c(Cl)ccc(Cn3ccnc3)c12 [CHEMBL2333326], the IC50 is given as 0.5 nM.

Same assay, conditions: reported activity, supplementary Table 1; ref Heim et al., 2008; read-out: CYP11B1 IC50; cited from earlier work
In the case of CCOc1cncc(-c2ccc3cc(OC)ccc3c2)c1 [CHEMBL445259], the IC50 is listed as 373 nM. In the case of COc1ccc2cc(-c3cncc(O)c3)ccc2c1 [CHEMBL500636], the IC50 is given as 8920 nM. In the case of Cc1ccncc1-c1ccc2cc(C#N)ccc2c1 [CHEMBL500665], the IC50 is listed as 52 nM. For COc1ccc2cc(-c3cncc(C(C)OC)c3)ccc2c1 (stereo not shown) [CHEMBL500392], the IC50 is listed as 10 nM. In the case of COC(=O)Cc1cncc(-c2ccc3cc(OC)ccc3c2)c1 [CHEMBL526339], the IC50 is given as 199 nM. For COc1cncc(-c2ccc3cc(OC)ccc3c2)c1 [CHEMBL447591], the IC50 is listed as 238 nM.

Same assay, conditions: reported activity, supplementary Table 1; ref Hille et al., 2011a; read-out: CYP11B1 IC50; cited from earlier work
For c1ccc(-c2nc3ncc[nH]c-3n2)nc1 [CHEMBL201143], the IC50 is listed as 16 nM.

Same assay, conditions: reported activity, supplementary Table 1; ref Hille et al., 2011b; read-out: CYP11B1 IC50; cited from earlier work
For c1ccc(C(CCn2ccnc2)(c2ccccc2)c2ccccc2)cc1 [CHEMBL1651509], the IC50 is listed as 80 nM. For c1ccc(C(c2ccccc2)(c2ccccc2)n2ccnc2)cc1 [CHEMBL1651507], the IC50 is given as 3 nM. For c1ccc(-c2csc(Cn3ccnc3)c2)cc1 [CHEMBL403598], the IC50 is given as 19 nM.

Same assay, conditions: reported activity, supplementary Table 1; ref Hu et al., 2012; read-out: CYP11B1 IC50; cited from earlier work
In the case of COc1cc2c(cc1-c1cccnc1)CCC(=O)N2C [CHEMBL2165315], the IC50 is given as 1100 nM.

Same assay, conditions: reported activity, supplementary Table 1; ref Lucas et al., 2008b; read-out: CYP11B1 IC50; cited from earlier work
In the case of COC1CCc2cc(-c3cccnc3)ccc2C1 (stereo not shown) [CHEMBL460178], the IC50 is given as 1140 nM. In the case of N#CC1=Cc2ccc(-c3cccnc3)cc2CC1 [CHEMBL461884], the IC50 is given as 290 nM. In the case of CN1C(=O)CCc2cc(-c3cncc4ccccc34)ccc21 [CHEMBL451505], the IC50 is given as 6.9 nM. For COc1cncc(-c2ccc3c(c2)CCC(=O)C3)c1 [CHEMBL499007], the IC50 is given as 191 nM.

Same assay, conditions: reported activity, supplementary Table 1; ref Lucas et al., 2011; read-out: CYP11B1 IC50; cited from earlier work
For O=C1CCc2cc(-c3cncc(-c4cccc(OC(F)(F)F)c4)c3)cc3c2N1CC3 [CHEMBL1765230], the IC50 is given as 2060 nM. For O=C1CCc2cc(-c3cncc(-c4cccc(C(F)(F)F)c4)c3)cc3c2N1CC3 [CHEMBL1765231], the IC50 is listed as 4650 nM. In the case of COc1cccc(-c2cncc(-c3cc4c5c(c3)CCN5C(=O)CC4)c2)c1 [CHEMBL1765227], the IC50 is given as 1370 nM. In the case of CCOc1cncc(-c2cc3c4c(c2)CCN4C(=O)CC3)c1 [CHEMBL1765209], the IC50 is given as 158 nM.

Test system: CYP11B2
Conditions: reported activity, supplementary Table 1; ref Blass, 2013a; read-out: CYP11B2 IC50; cited from earlier work
For Cc1nnc2n1-c1ccc(-c3cncc4ccccc34)cc1CC2 [CHEMBL2331706], the IC50 is given as 5 nM.

Same assay, conditions: reported activity, supplementary Table 1; ref Emmerich et al., 2013; read-out: CYP11B2 IC50; cited from earlier work
In the case of CC(c1ccc(-c2cccc3ccccc23)nc1)n1ccnc1 (stereo not shown) [CHEMBL2417627], the IC50 is listed as 273 nM. In the case of c1ccc(-c2ccc(C(c3ccco3)n3ccnc3)cn2)cc1 (stereo not shown) [CHEMBL2417623], the IC50 is listed as 74 nM. For COc1cncc(Cc2ccc(-c3ccccc3)nc2)c1 [CHEMBL2417614], the IC50 is listed as 25 nM. For c1ccc(-c2ccc(Cc3cncc4ccccc34)cn2)cc1 [CHEMBL2417635], the IC50 is listed as 23 nM. For CCC(c1ccc(-c2ccccc2)nc1)n1ccnc1 (stereo not shown) [CHEMBL2417620], the IC50 is given as 92 nM.

Same assay, conditions: reported activity, supplementary Table 1; ref Gobbi et al., 2013; read-out: CYP11B2 IC50; cited from earlier work
In the case of O=c1c2ccccc2oc2c(Br)ccc(Cn3ccnc3)c12 [CHEMBL78322], the IC50 is given as 8.5 nM. For O=c1c2ccccc2oc2c(OCC3CC3)ccc(Cn3ccnc3)c12 [CHEMBL2333334], the IC50 is listed as 24.1 nM. In the case of CC(C)Oc1ccc(Cn2ccnc2)c2c(=O)c3ccccc3oc12 [CHEMBL2333331], the IC50 is given as 19.1 nM. For O=c1c2ccccc2oc2c(Cl)ccc(Cn3ccnc3)c12 [CHEMBL2333326], the IC50 is listed as 3 nM.

Same assay, conditions: reported activity, supplementary Table 1; ref Heim et al., 2008; read-out: CYP11B2 IC50; cited from earlier work
For CCOc1cncc(-c2ccc3cc(OC)ccc3c2)c1 [CHEMBL445259], the IC50 is listed as 5.1 nM. In the case of COc1ccc2cc(-c3cncc(O)c3)ccc2c1 [CHEMBL500636], the IC50 is listed as 94 nM. In the case of Cc1ccncc1-c1ccc2cc(C#N)ccc2c1 [CHEMBL500665], the IC50 is listed as 0.6 nM. For COc1ccc2cc(-c3cncc(C(C)OC)c3)ccc2c1 (stereo not shown) [CHEMBL500392], the IC50 is given as 0.2 nM. In the case of COC(=O)Cc1cncc(-c2ccc3cc(OC)ccc3c2)c1 [CHEMBL526339], the IC50 is given as 6.9 nM. For COc1cncc(-c2ccc3cc(OC)ccc3c2)c1 [CHEMBL447591], the IC50 is listed as 4.2 nM.

Same assay, conditions: reported activity, supplementary Table 1; ref Hille et al., 2011a; read-out: CYP11B2 IC50; cited from earlier work
For c1ccc(-c2nc3ncc[nH]c-3n2)nc1 [CHEMBL201143], the IC50 is given as 251 nM.

Same assay, conditions: reported activity, supplementary Table 1; ref Hille et al., 2011b; read-out: CYP11B2 IC50; cited from earlier work
For c1ccc(C(CCn2ccnc2)(c2ccccc2)c2ccccc2)cc1 [CHEMBL1651509], the IC50 is listed as 290 nM. In the case of c1ccc(C(c2ccccc2)(c2ccccc2)n2ccnc2)cc1 [CHEMBL1651507], the IC50 is listed as 11 nM. For c1ccc(-c2csc(Cn3ccnc3)c2)cc1 [CHEMBL403598], the IC50 is listed as 277 nM.

Same assay, conditions: reported activity, supplementary Table 1; ref Hu et al., 2012; read-out: CYP11B2 IC50; cited from earlier work
For COc1cc2c(cc1-c1cccnc1)CCC(=O)N2C [CHEMBL2165315], the IC50 is given as 19 nM.

Same assay, conditions: reported activity, supplementary Table 1; ref Lucas et al., 2008b; read-out: CYP11B2 IC50; cited from earlier work
For COC1CCc2cc(-c3cccnc3)ccc2C1 (stereo not shown) [CHEMBL460178], the IC50 is listed as 3.3 nM. For N#CC1=Cc2ccc(-c3cccnc3)cc2CC1 [CHEMBL461884], the IC50 is listed as 1.6 nM. For CN1C(=O)CCc2cc(-c3cncc4ccccc34)ccc21 [CHEMBL451505], the IC50 is listed as 0.1 nM. In the case of COc1cncc(-c2ccc3c(c2)CCC(=O)C3)c1 [CHEMBL499007], the IC50 is given as 1.8 nM.

Same assay, conditions: reported activity, supplementary Table 1; ref Lucas et al., 2011; read-out: CYP11B2 IC50; cited from earlier work
In the case of O=C1CCc2cc(-c3cncc(-c4cccc(OC(F)(F)F)c4)c3)cc3c2N1CC3 [CHEMBL1765230], the IC50 is listed as 16 nM. For O=C1CCc2cc(-c3cncc(-c4cccc(C(F)(F)F)c4)c3)cc3c2N1CC3 [CHEMBL1765231], the IC50 is listed as 33 nM. For COc1cccc(-c2cncc(-c3cc4c5c(c3)CCN5C(=O)CC4)c2)c1 [CHEMBL1765227], the IC50 is given as 4.6 nM. In the case of CCOc1cncc(-c2cc3c4c(c2)CCN4C(=O)CC3)c1 [CHEMBL1765209], the IC50 is given as 1 nM.
